Measurements from patent US8192962B2, “Processes for detecting toxic substances” (Daikin Industries, Ltd., priority 2001, dated 2012).

Test system: Metabolism protein genes
Assay: DNA chip mRNA expression in yeast, metabolism protein genes (Table 7)
Format: cell-based, Saccharomyces cerevisiae S288C
Summary of the method: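 Chemical exposure: 2 h, log-phase S. cerevisiae S288C, YPD, 25° C., dose set to inhibit growth without death. Profiling: mRNA labeled by reverse transcription with Cy3- or Cy5-dUTP, hybridized to whole-genome array. Output: fluorescence ratio against untreated culture.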

## COc1cc(CNC(=O)CCCCC=CC(C)C)ccc1O [(12), 8-methyl-N-vanillyl-6-nonenamide]
Yeast gene YJR143C
  level of expressed mRNA in the presence/in the absence of chemical substance: 0.6
Yeast gene YJR148W
  The level of expressed mRNA in the presence of chemical substance/The level of expressed mRNA in the absence of chemical substance: 0.8
Yeast gene YJR155W
  The level of expressed mRNA in the presence of chemical substance/The level of expressed mRNA in the absence of chemical substance: 1.0
Yeast gene YKL035W
  The level of expressed mRNA in the presence of chemical substance/The level of expressed mRNA in the absence of chemical substance: 1.0
Yeast gene YKL060C
  level of expressed mRNA in the presence/in the absence of chemical substance: 1.3
Yeast gene YKL091C
  The level of expressed mRNA in the presence of chemical substance/The level of expressed mRNA in the absence of chemical substance: 1.3
Yeast gene YKL104C
  The level of expressed mRNA in the presence of chemical substance/The level of expressed mRNA in the absence of chemical substance: 1.6
Yeast gene YKL148C
  level of expressed mRNA in the presence/in the absence of chemical substance: 0.8
Yeast gene YKL152C
  The level of expressed mRNA in the presence of chemical substance/The level of expressed mRNA in the absence of chemical substance: 1.5
Yeast gene YKL157W
  level of expressed mRNA in the presence/in the absence of chemical substance: 1.0
Yeast gene YKL213C
  The level of expressed mRNA in the presence of chemical substance/The level of expressed mRNA in the absence of chemical substance: 0.9
Yeast gene YKL215C
  The level of expressed mRNA in the presence of chemical substance/The level of expressed mRNA in the absence of chemical substance: 1.0
Yeast gene YKR034W
  level of expressed mRNA in the presence/in the absence of chemical substance: 0.7
Yeast gene YKR039W
  The level of expressed mRNA in the presence of chemical substance/The level of expressed mRNA in the absence of chemical substance: 1.5
Yeast gene YLL058W
  The level of expressed mRNA in the presence of chemical substance/The level of expressed mRNA in the absence of chemical substance: 1.0
Yeast gene YLR006C
  level of expressed mRNA in the presence/in the absence of chemical substance: 0.7
Yeast gene YLR044C
  level of expressed mRNA in the presence/in the absence of chemical substance: 1.4
Yeast gene YLR056W
  level of expressed mRNA in the presence/in the absence of chemical substance: 0.9
Yeast gene YLR058C
  level of expressed mRNA in the presence/in the absence of chemical substance: 0.4
Yeast gene YLR081W
  level of expressed mRNA in the presence/in the absence of chemical substance: 1.0
Yeast gene YLR089C
  level of expressed mRNA in the presence/in the absence of chemical substance: 0.6
Yeast gene YLR180W
  The level of expressed mRNA in the presence of chemical substance/The level of expressed mRNA in the absence of chemical substance: 0.6
Yeast gene YLR273C
  The level of expressed mRNA in the presence of chemical substance/The level of expressed mRNA in the absence of chemical substance: 0.9
Yeast gene YLR284C
  level of expressed mRNA in the presence/in the absence of chemical substance: 0.6
Yeast gene YLR299W
  The level of expressed mRNA in the presence of chemical substance/The level of expressed mRNA in the absence of chemical substance: 1.0
Yeast gene YLR300W
  The level of expressed mRNA in the presence of chemical substance/The level of expressed mRNA in the absence of chemical substance: 0.5
Yeast gene YLR304C
  level of expressed mRNA in the presence/in the absence of chemical substance: 1.0
Yeast gene YLR307W
  The level of expressed mRNA in the presence of chemical substance/The level of expressed mRNA in the absence of chemical substance: 0.7
Yeast gene YLR348C
  The level of expressed mRNA in the presence of chemical substance/The level of expressed mRNA in the absence of chemical substance: 0.9
Yeast gene YLR354C
  level of expressed mRNA in the presence/in the absence of chemical substance: 1.2
Yeast gene YLR372W
  level of expressed mRNA in the presence/in the absence of chemical substance: 0.6
Yeast gene YML022W
  level of expressed mRNA in the presence/in the absence of chemical substance: 0.6
Yeast gene YML054C
  The level of expressed mRNA in the presence of chemical substance/The level of expressed mRNA in the absence of chemical substance: 1.8
Yeast gene YML070W
  The level of expressed mRNA in the presence of chemical substance/The level of expressed mRNA in the absence of chemical substance: 1.3
Yeast gene YML100W
  The level of expressed mRNA in the presence of chemical substance/The level of expressed mRNA in the absence of chemical substance: 1.2
Yeast gene YMR008C
  The level of expressed mRNA in the presence of chemical substance/The level of expressed mRNA in the absence of chemical substance: 1.1
Yeast gene YMR011W
  level of expressed mRNA in the presence/in the absence of chemical substance: 0.8
Yeast gene YMR015C
  level of expressed mRNA in the presence/in the absence of chemical substance: 0.9
Yeast gene YMR020W
  The level of expressed mRNA in the presence of chemical substance/The level of expressed mRNA in the absence of chemical substance: 1.1
Yeast gene YMR083W
  level of expressed mRNA in the presence/in the absence of chemical substance: 0.7
Yeast gene YMR105C
  The level of expressed mRNA in the presence of chemical substance/The level of expressed mRNA in the absence of chemical substance: 1.7
Yeast gene YMR189W
  The level of expressed mRNA in the presence of chemical substance/The level of expressed mRNA in the absence of chemical substance: 0.6
Yeast gene YMR205C
  level of expressed mRNA in the presence/in the absence of chemical substance: 1.1
Yeast gene YMR261C
  level of expressed mRNA in the presence/in the absence of chemical substance: 0.9
Yeast gene YMR271C
  The level of expressed mRNA in the presence of chemical substance/The level of expressed mRNA in the absence of chemical substance: 1.3
Yeast gene YMR296C
  The level of expressed mRNA in the presence of chemical substance/The level of expressed mRNA in the absence of chemical substance: 0.8
Yeast gene YMR323W
  level of expressed mRNA in the presence/in the absence of chemical substance: 1.2
Yeast gene YNL012W
  The level of expressed mRNA in the presence of chemical substance/The level of expressed mRNA in the absence of chemical substance: 1.3
Yeast gene YNL025C
  level of expressed mRNA in the presence/in the absence of chemical substance: 0.8
Yeast gene YNL045W
  The level of expressed mRNA in the presence of chemical substance/The level of expressed mRNA in the absence of chemical substance: 0.9
Yeast gene YNL104C
  The level of expressed mRNA in the presence of chemical substance/The level of expressed mRNA in the absence of chemical substance: 1.1
Yeast gene YNL106C
  The level of expressed mRNA in the presence of chemical substance/The level of expressed mRNA in the absence of chemical substance: 0.8
Yeast gene YNL169C
  The level of expressed mRNA in the presence of chemical substance/The level of expressed mRNA in the absence of chemical substance: 1.0
Yeast gene YNL192W
  level of expressed mRNA in the presence/in the absence of chemical substance: 1.1
Yeast gene YNL231C
  The level of expressed mRNA in the presence of chemical substance/The level of expressed mRNA in the absence of chemical substance: 1.8
Yeast gene YNL322C
  The level of expressed mRNA in the presence of chemical substance/The level of expressed mRNA in the absence of chemical substance: 0.7
Yeast gene YNL331C
  The level of expressed mRNA in the presence of chemical substance/The level of expressed mRNA in the absence of chemical substance: 0.9
Yeast gene YNL332W
  The level of expressed mRNA in the presence of chemical substance/The level of expressed mRNA in the absence of chemical substance: 1.2
Yeast gene YNR019W
  The level of expressed mRNA in the presence of chemical substance/The level of expressed mRNA in the absence of chemical substance: 1.0
Yeast gene YNR033W
  The level of expressed mRNA in the presence of chemical substance/The level of expressed mRNA in the absence of chemical substance: 1.1
Yeast gene YNR059W
  The level of expressed mRNA in the presence of chemical substance/The level of expressed mRNA in the absence of chemical substance: 0.8
Yeast gene YOL058W
  The level of expressed mRNA in the presence of chemical substance/The level of expressed mRNA in the absence of chemical substance: 1.3
Yeast gene YOL086C
  level of expressed mRNA in the presence/in the absence of chemical substance: 1.3
Yeast gene YOL108C
  level of expressed mRNA in the presence/in the absence of chemical substance: 1.0
Yeast gene YOL116W
  level of expressed mRNA in the presence/in the absence of chemical substance: 0.6
Yeast gene YOL126C
  The level of expressed mRNA in the presence of chemical substance/The level of expressed mRNA in the absence of chemical substance: 1.1
Yeast gene YOL153C
  The level of expressed mRNA in the presence of chemical substance/The level of expressed mRNA in the absence of chemical substance: 1.9
Yeast gene YOL156W
  level of expressed mRNA in the presence/in the absence of chemical substance: 0.9
Yeast gene YOL165C
  The level of expressed mRNA in the presence of chemical substance/The level of expressed mRNA in the absence of chemical substance: 0.8
Yeast gene YOR002W
  level of expressed mRNA in the presence/in the absence of chemical substance: 0.5
Yeast gene YOR085W
  level of expressed mRNA in the presence/in the absence of chemical substance: 0.8
Yeast gene YOR099W
  The level of expressed mRNA in the presence of chemical substance/The level of expressed mRNA in the absence of chemical substance: 1.1
Yeast gene YOR103C
  level of expressed mRNA in the presence/in the absence of chemical substance: 1.2
Yeast gene YOR108W
  level of expressed mRNA in the presence/in the absence of chemical substance: 0.7
Yeast gene YOR128C
  level of expressed mRNA in the presence/in the absence of chemical substance: 0.5
Yeast gene YOR130C
  The level of expressed mRNA in the presence of chemical substance/The level of expressed mRNA in the absence of chemical substance: 0.9
Yeast gene YOR142W
  level of expressed mRNA in the presence/in the absence of chemical substance: 0.8
Yeast gene YOR176W
  level of expressed mRNA in the presence/in the absence of chemical substance: 1.3
Yeast gene YOR178C
  level of expressed mRNA in the presence/in the absence of chemical substance: 1.7
Yeast gene YOR251C
  level of expressed mRNA in the presence/in the absence of chemical substance: 0.9
Yeast gene YOR336W
  The level of expressed mRNA in the presence of chemical substance/The level of expressed mRNA in the absence of chemical substance: 1.0
Yeast gene YOR347C
  The level of expressed mRNA in the presence of chemical substance/The level of expressed mRNA in the absence of chemical substance: 1.2
Yeast gene YOR348C
  level of expressed mRNA in the presence/in the absence of chemical substance: 0.7
Yeast gene YPL017C
  The level of expressed mRNA in the presence of chemical substance/The level of expressed mRNA in the absence of chemical substance: 1.0
Yeast gene YPL028W
  level of expressed mRNA in the presence/in the absence of chemical substance: 1.4
Yeast gene YPL057C
  level of expressed mRNA in the presence/in the absence of chemical substance: 1.0
Yeast gene YPL135W
  level of expressed mRNA in the presence/in the absence of chemical substance: 1.1
Yeast gene YPL148C
  level of expressed mRNA in the presence/in the absence of chemical substance: 0.7
Yeast gene YPR026W
  The level of expressed mRNA in the presence of chemical substance/The level of expressed mRNA in the absence of chemical substance: 1.2
Yeast gene YPR113W
  level of expressed mRNA in the presence/in the absence of chemical substance: 0.7
Yeast gene YPR165W
  level of expressed mRNA in the presence/in the absence of chemical substance: 0.8
Yeast gene YPR167C
  The level of expressed mRNA in the presence of chemical substance/The level of expressed mRNA in the absence of chemical substance: 1.3
Yeast gene YPR183W
  level of expressed mRNA in the presence/in the absence of chemical substance: 1.2
